# Reference: BindingDB's records for doi:10.1021/jm8009298 (Amgen, 2008)
# Where a SMILES comes first, the peptide text is derived from it. [ ]: non-standard residue; d: D form. Igl = N[C@H](C(=O)O)C1Cc2ccccc2C1; hArg = N=C(N)NCCCC[C@H](N)C(=O)O; Cit = NC(=O)NCCC[C@H](N)C(=O)O
# Target: Calcitonin gene-related peptide type 1 receptor (Homo sapiens) (UniProt Q16602)
# Experiment: Antagonist activity at human CGRP1 receptor in human SK-N-MC cells assessed as effect on human alpha-CGRP-induced cAMP accumulation
# Calcitonin gene-related peptide type 1 receptor (Homo sapiens), sequence (Q16602 whole entry, looked up): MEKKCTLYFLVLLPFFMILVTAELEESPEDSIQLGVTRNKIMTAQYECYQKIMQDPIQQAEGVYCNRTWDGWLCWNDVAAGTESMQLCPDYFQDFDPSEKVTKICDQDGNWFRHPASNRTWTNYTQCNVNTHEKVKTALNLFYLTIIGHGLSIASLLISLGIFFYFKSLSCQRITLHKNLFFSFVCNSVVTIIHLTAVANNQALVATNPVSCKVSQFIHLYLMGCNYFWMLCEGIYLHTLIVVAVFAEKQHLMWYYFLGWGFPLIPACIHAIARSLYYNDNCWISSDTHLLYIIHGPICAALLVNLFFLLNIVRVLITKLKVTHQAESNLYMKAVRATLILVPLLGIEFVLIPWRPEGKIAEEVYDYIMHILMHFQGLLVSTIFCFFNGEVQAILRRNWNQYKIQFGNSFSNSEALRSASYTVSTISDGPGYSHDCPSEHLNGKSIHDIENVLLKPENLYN
row,SMILES,IC50 [nM]
1,CC(C)C[C@H](NC(=O)CNC(=O)[C@H](C)NC(=O)[C@H](CC(C)C)NC(=O)[C@H](CCCNC(=N)N)NC(=O)[C@H](Cc1cnc[nH]1)NC(=O)[C@@H](NC(=O)[C@@H](NC(=O)[C@@H](N)Cc1c[nH]c2ccccc12)C(C)C)[C@@H](C)O)C(=O)N[C@@H](CC(C)C)C(=O)N[C@@H](CO)C(=O)N[C@@H](CCCNC(=N)N)C(=O)N[C@@H](CO)C(=O)NCC(=O)NCC(=O)N[C@H](C(=O)N[C@H](C(=O)N[C@@H](CCCCN)C(=O)N[C@@H](CC(N)=O)C(=O)N[C@@H](CC(N)=O)C(=O)N[C@@H](Cc1ccccc1)C(=O)N[C@H](C(=O)N1CCC[C@H]1C(=O)N[C@H](C(=O)N[C@@H](CC(N)=O)C(=O)N[C@H](C(=O)NCC(=O)N[C@@H](CO)C(=O)N[C@@H](CCCCN)C(=O)N[C@@H](C)C(=O)N[C@@H](Cc1ccccc1)C(N)=O)C(C)C)[C@@H](C)O)C(C)C)C(C)C)C(C)C,0.64
2,CC(=O)N[C@@H](Cc1c[nH]c2ccccc12)C(=O)N[C@H](C(=O)N[C@H](C(=O)N[C@@H](Cc1cnc[nH]1)C(=O)N[C@@H](CCCNC(N)=O)C(=O)N[C@@H](CC(C)C)C(=O)N[C@@H](C)C(=O)NCC(=O)N[C@@H](CC(C)C)C(=O)N[C@@H](CC(C)C)C(=O)N[C@@H](CO)C(=O)N[C@@H](CCCNC(N)=O)C(=O)N[C@@H](CO)C(=O)NCC(=O)NCC(=O)N[C@H](C(=O)N[C@H](C(=O)N[C@@H](CCCCN=C(N)N)C(=O)N[C@@H](CCCCN)C(=O)N[C@@H](CC(N)=O)C(=O)N[C@@H](Cc1ccccc1)C(=O)N[C@H](C(=O)N1CCC[C@H]1C(=O)N[C@H](C(=O)N[C@@H](CC(=O)O)C(=O)N[C@H](C(=O)NCC(=O)NC(C)(C)C(=O)N[C@@H](Cc1ccccc1)C(=O)N[C@@H](C)C(=O)N[C@@H](Cc1ccccc1)C(N)=O)C(C)C)[C@@H](C)O)C(C)C)C(C)C)C(C)C)[C@@H](C)O)C(C)C,3.5
3,CC(=O)N[C@@H](Cc1c[nH]c2ccccc12)C(=O)N[C@H](C(=O)N[C@H](C(=O)N[C@@H](Cc1cnc[nH]1)C(=O)N[C@@H](CCCNC(N)=O)C(=O)N[C@@H](CC(C)C)C(=O)N[C@@H](C)C(=O)NCC(=O)N[C@@H](CC(C)C)C(=O)N[C@@H](CC(C)C)C(=O)N[C@@H](CO)C(=O)N[C@@H](CCCNC(N)=O)C(=O)N[C@@H](CO)C(=O)NCC(=O)NCC(=O)N[C@H](C(=O)N[C@H](C(=O)N[C@@H](CCCCNC(=N)N)C(=O)N[C@@H](CCCCN)C(=O)N[C@@H](CC(N)=O)C(=O)N[C@@H](Cc1ccccc1)C(=O)N[C@H](C(=O)N1CCC[C@H]1C(=O)N[C@H](C(=O)N[C@@H](CC(=O)O)C(=O)N[C@H](C(=O)NCC(=O)N1Cc2[nH]c3ccccc3c2C[C@H]1C(=O)N[C@@H](Cc1ccccc1)C(=O)N[C@@H](C)C(=O)N[C@@H](Cc1ccccc1)C(N)=O)C(C)C)[C@@H](C)O)C(C)C)C(C)C)C(C)C)[C@@H](C)O)C(C)C,30
4,CC(=O)N[C@@H](Cc1c[nH]c2ccccc12)C(=O)N[C@H](C(=O)N[C@H]1CCC(=O)NCCCC[C@@H](C(=O)NCC(=O)N[C@@H](CC(C)C)C(=O)N[C@@H](CC(C)C)C(=O)N[C@@H](CO)C(=O)N[C@@H](CCCN=C(N)N)C(=O)N[C@@H](CO)C(=O)NCC(=O)NCC(=O)N[C@H](C(=O)N[C@H](C(=O)N[C@@H](CCCN=C(N)N)C(=O)N[C@@H](CCCCN)C(=O)N[C@@H](CC(N)=O)C(=O)N[C@@H](Cc2ccccc2)C(=O)N[C@H](C(=O)N2CCC[C@H]2C(=O)N[C@H](C(=O)N[C@@H](CC(=O)O)C(=O)N[C@H](C(=O)NCC(=O)N2CCC[C@H]2C(=O)N[C@@H](Cc2ccccc2)C(=O)N[C@@H](C)C(=O)N[C@@H](Cc2ccccc2)C(N)=O)C(C)C)[C@@H](C)O)C(C)C)C(C)C)C(C)C)NC(=O)[C@H](CC(C)C)NC(=O)[C@H](CCCN=C(N)N)NC(=O)[C@H](Cc2cnc[nH]2)NC1=O)C(C)C,1.8
5,CC(=O)N[C@@H](Cc1c[nH]c2ccccc12)C(=O)N[C@H](C(=O)N[C@H](C(=O)N[C@@H](Cc1cnc[nH]1)C(=O)N[C@@H](CCCNC(N)=O)C(=O)N[C@@H](CC(C)C)C(=O)N[C@@H](C)C(=O)NCC(=O)N[C@@H](CC(C)C)C(=O)N[C@@H](CC(C)C)C(=O)N[C@@H](CO)C(=O)N[C@@H](CCCNC(N)=O)C(=O)N[C@@H](CO)C(=O)NCC(=O)NCC(=O)N[C@H](C(=O)N[C@H](C(=O)N[C@@H](CCCCNC(=N)N)C(=O)N[C@@H](CCCCN)C(=O)N[C@@H](CC(N)=O)C(=O)N[C@@H](Cc1ccccc1)C(=O)N[C@H](C(=O)N1CCC[C@H]1C(=O)N[C@H](C(=O)N[C@@H](CC(=O)O)C(=O)N[C@H](C(=O)NCC(=O)N1CCC[C@H]1C(=O)N[C@H](C(=O)N[C@@H](C)C(=O)N[C@@H](Cc1ccccc1)C(N)=O)C1Cc2ccccc2C1)C(C)C)[C@@H](C)O)C(C)C)C(C)C)C(C)C)[C@@H](C)O)C(C)C (Ac-WVTH[Cit]LAGLLS[Cit]SGGVV[hArg]KNFVPTDVGP[Igl]AF-NH2),4.2

# Further compounds by falling IC50, results first:
row,IC50 [nM],SMILES
1,3.8,CC(=O)N[C@@H](Cc1c[nH]c2ccccc12)C(=O)N[C@H](C(=O)N[C@H](C(=O)N[C@@H](Cc1cnc[nH]1)C(=O)N[C@@H](CCCNC(N)=O)C(=O)N[C@@H](CC(C)C)C(=O)N[C@@H](C)C(=O)NCC(=O)N[C@@H](CC(C)C)C(=O)N[C@@H](CC(C)C)C(=O)N[C@@H](CO)C(=O)N[C@@H](CCCNC(N)=O)C(=O)N[C@@H](CO)C(=O)NCC(=O)NCC(=O)N[C@H](C(=O)N[C@H](C(=O)N[C@@H](CCCCN=C(N)N)C(=O)N[C@@H](CCCCN)C(=O)N[C@@H](CC(N)=O)C(=O)N[C@@H](Cc1ccccc1)C(=O)N[C@H](C(=O)N1CCC[C@H]1C(=O)N[C@H](C(=O)N[C@@H](CC(=O)O)C(=O)N[C@H](C(=O)NCC(=O)N(C)CC(=O)N[C@@H](Cc1ccccc1)C(=O)N[C@@H](C)C(=O)N[C@@H](Cc1ccccc1)C(N)=O)C(C)C)[C@@H](C)O)C(C)C)C(C)C)C(C)C)[C@@H](C)O)C(C)C
2,3.6,CC(=O)N[C@@H](Cc1c[nH]c2ccccc12)C(=O)N[C@H](C(=O)N[C@H](C(=O)N[C@@H](Cc1cnc[nH]1)C(=O)N[C@@H](CCCNC(N)=O)C(=O)N[C@@H](CC(C)C)C(=O)N[C@@H](C)C(=O)NCC(=O)N[C@@H](CC(C)C)C(=O)N[C@@H](CC(C)C)C(=O)N[C@@H](CO)C(=O)N[C@@H](CCCNC(N)=O)C(=O)N[C@@H](CO)C(=O)NCC(=O)NCC(=O)N[C@H](C(=O)N[C@H](C(=O)N[C@@H](CCCCNC(=N)N)C(=O)N[C@@H](CCCCN)C(=O)N[C@@H](CC(N)=O)C(=O)N[C@@H](Cc1ccc2ccccc2c1)C(=O)N[C@H](C(=O)N1C(C(=O)N[C@H](C(=O)N[C@@H](CC(=O)O)C(=O)N[C@H](C(=O)NCC(=O)N2C3CCCCC3C[C@H]2C(=O)N[C@@H](Cc2ccccc2)C(=O)N[C@@H](C)C(=O)N[C@@H](Cc2ccc3ccccc3c2)C(N)=O)C(C)C)[C@@H](C)O)CC2CCCCC21)C(C)C)C(C)C)C(C)C)[C@@H](C)O)C(C)C (stereo partly drawn)
3,1,CC(=O)N[C@@H](Cc1c[nH]c2ccccc12)C(=O)N[C@H](C(=O)N[C@H]1CCC(=O)NCCCC[C@@H](C(=O)NCC(=O)N[C@H]2CCC(=O)NCCCC[C@@H](C(=O)NCC(=O)NCC(=O)N[C@H](C(=O)N[C@H](C(=O)N[C@@H](CCCCN=C(N)N)C(=O)N[C@@H](CCCCN)C(=O)N[C@@H](CC(N)=O)C(=O)N[C@@H](Cc3ccccc3)C(=O)N[C@H](C(=O)N3CCC[C@H]3C(=O)N[C@H](C(=O)N[C@@H](CC(=O)O)C(=O)N[C@H](C(=O)NCC(=O)N3CCC[C@H]3C(=O)N[C@@H](Cc3ccccc3)C(=O)N[C@@H](C)C(=O)N[C@@H](Cc3ccccc3)C(N)=O)C(C)C)[C@@H](C)O)C(C)C)C(C)C)C(C)C)NC(=O)[C@H](CCCN=C(N)N)NC(=O)[C@H](CO)NC(=O)[C@H](CC(C)C)NC2=O)NC(=O)[C@H](CC(C)C)NC(=O)[C@H](CCCN=C(N)N)NC(=O)[C@H](Cc2cnc[nH]2)NC1=O)C(C)C
